From patent publication US20220055989A1, “CONDENSED PYRROLES AS NOVEL BROMODOMAIN INHIBITORS” (ALBERT LUDWING UNIVERSITÄT FREIBURG, priority 2018, published 2022)

Legend:
[1] = target: T1, BRD1 (Homo sapiens, UniProt O95696); assay: BROMOscan Kd determination BRD1; type: binding
T1 construct: T7 phage strains displaying bromodomains were grown in parallel; made in house; host or cells: T7 phage grown in an E. coli host derived from the BL21 strain
Description: (§1) Bromodomain profiling was carried out on the basis of BROMOscan™. This platform accounted for the indirect determination of the dissociation constants between 19 bromodomains and the compound of formula (13), by binding competition against a reference immobilized ligand. Compounds that bind the bromodomain prevent its binding to the immobilized ligand thus reducing the amount of protein captured. […] Hits are identified by measuring the amount of bromodomain captured in test versus control samples. Bromodomain assays for Kd determination: T7 phage strains displaying bromodomains were grown in parallel in 24-well blocks in an E. coli host derived from the BL21 strain. E. coli were grown to log-phase and infected with T7 phage from a frozen stock (multiplicity of infection=0.4) and incubated with shaking at 32° C. until lysis (90-150 minutes). The lysates were centrifuged (5,000×g) and filtered (0.2 μm) to remove cell debris. […] Kds were determined using an 11-point 3-fold compound dilution series with one DMSO control point. […] The bromodomain concentration in the eluates was measured by qPCR. […] Most Kds were determined using a compound top concentration=10,000 nM. […] Binding Constants (Kds): Binding constants (Kds) were calculated with a standard dose-response curve using the Hill equation: The Hill Slope was set to −1. […]

[2] = target: T2, TAF1L(2) (Homo sapiens, UniProt Q8IZX4); assay: BROMOscan Kd determination TAF1L(2); type: binding
T2 construct: FALZ, PBRM1-BD2, BPRM1-BDS, TAF1-BD2, TAF1L-BD2; host or cells: T7 phage grown in E. coli host derived from BL21
Description: as §1

[3] = target: T3, SMARCA2 (Homo sapiens, UniProt P51531); assay: BROMOscan Kd determination SMARCA2; type: binding
T3 construct: T7 phage strains displaying bromodomains were grown in parallel; host or cells: T7 phage grown in E. coli host derived from BL21
Description: as §1

[4] = target: T4, WRD9(2) (Homo sapiens, UniProt Q9NSI6); assay: BROMOscan Kd determination WRD9(2); type: binding
T4 construct: T7 phage strains displaying bromodomains were grown in parallel; host or cells: T7 phage grown in E. coli host derived from BL21
Description: as §1

[5] = target: T5, BRD2(1, 2) (Homo sapiens, UniProt P25440); assay: BROMOscan Kd determination BRD2(1, 2); type: binding
T5 construct: T7 phage strains displaying bromodomains were grown in parallel; made in house; host or cells: T7 phage grown in an E. coli host derived from the BL21 strain
Description: as §1

[6] = target: T6, BAZ2A (Homo sapiens, UniProt Q9UIF9); assay: BROMOscan Kd determination BAZ2A; type: binding
T6 construct: T7 phage strains displaying bromodomains were grown in parallel; made in house; host or cells: T7 phage grown in an E. coli host derived from the BL21 strain
Description: as §1

[7] = target: T7, FALZ (Homo sapiens, UniProt Q12830); assay: BROMOscan Kd determination FALZ; type: binding
T7 construct: T7 phage strains displaying bromodomains were grown in parallel; host or cells: T7 phage grown in E. coli host derived from BL21
Description: as §1

[8] = target: T8, PBRM1(5) (Homo sapiens, UniProt Q86U86); assay: BROMOscan Kd determination PBRM1(5); type: binding
T8 construct: T7 phage strains displaying bromodomains were grown in parallel; host or cells: T7 phage grown in E. coli host derived from BL21
Description: as §1

[9] = target: T9, BRD3(2) (Homo sapiens, UniProt Q15059); assay: Bromodomain assay % Ctrl determination BRD3(2); conditions: lower numbers indicate a stronger binding
T9 construct: T7 phage strains displaying bromodomains were grown in parallel; made in house; host or cells: T7 phage grown in an E. coli host derived from the BL21 strain
Description: (§2) Compounds that bind the bromodomain prevent its binding to the immobilized ligand thus reducing the amount of protein captured. […] Hits are identified by measuring the amount of bromodomain captured in test versus control samples. Bromodomain assays for % Ctrl determination: T7 phage strains displaying bromodomains were grown in parallel in 24-well blocks in an E. coli host derived from the BL21 strain. E. coli were grown to log-phase and infected with T7 phage from a frozen stock (multiplicity of infection=0.4) and incubated with shaking at 32° C. until lysis (90-150 minutes). The lysates were centrifuged (5,000×g) and filtered (0.2 μm) to remove cell debris. […] The liganded beads were blocked with excess biotin and washed with blocking buffer (SeaBlock (Pierce), 1% BSA, 0.05% Tween 20, 1 mM DTT) to remove unbound ligand and to reduce non-specific phage binding. […] Test compounds were prepared as 1000× stocks in 100% DMSO and subsequently diluted 1:25 in monoethylene glycol (MEG). The compounds were then diluted directly into the assays such that the final concentrations of DMSO and MEG were 0.1% and 2.4%, respectively. All reactions were performed in polypropylene 384-well plates in a final volume of 0.02 ml. […] The bromodomain concentration in the eluates was measured by qPCR. […]

[10] = target: T10, BRPF3 (Homo sapiens, UniProt Q9ULD4); assay: Bromodomain assay % Ctrl determination BRPF3; conditions: lower numbers indicate a stronger binding
T10 construct: T7 phage strains displaying bromodomains were grown; host or cells: T7 phage in E. coli derived from BL21
Description: as §2

[11] = target: T3, SMARCA2; assay: Bromodomain assay % Ctrl determination SMARCA2; conditions: lower numbers indicate a stronger binding
Description: as §2

[12] = target: T7, FALZ; assay: Bromodomain assay % Ctrl determination FALZ; conditions: lower numbers indicate a stronger binding
Description: as §2

[13] = target: T11, BRD3(1) (Homo sapiens, UniProt Q15059); assay: Bromodomain assay % Ctrl determination BRD3(1); conditions: lower numbers indicate a stronger binding
T11 construct: T7 phage strains displaying bromodomains were grown in parallel; made in house; host or cells: T7 phage grown in an E. coli host derived from the BL21 strain
Description: as §2

[14] = target: T12, ATAD2B (Homo sapiens, UniProt Q9ULI0); assay: Bromodomain assay % Ctrl determination ATAD2B; conditions: lower numbers indicate a stronger binding
T12 construct: T7 phage strains displaying bromodomains were grown in parallel; made in house; host or cells: T7 phage grown in an E. coli host derived from the BL21 strain
Description: as §2

T3 sequence (P51531 1378-1506 limits assumed): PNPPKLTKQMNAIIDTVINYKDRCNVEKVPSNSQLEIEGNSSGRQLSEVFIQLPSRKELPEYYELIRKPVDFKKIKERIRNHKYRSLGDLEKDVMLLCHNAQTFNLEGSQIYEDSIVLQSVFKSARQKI
T12 sequence (Q9ULI0 951-1066 limits assumed): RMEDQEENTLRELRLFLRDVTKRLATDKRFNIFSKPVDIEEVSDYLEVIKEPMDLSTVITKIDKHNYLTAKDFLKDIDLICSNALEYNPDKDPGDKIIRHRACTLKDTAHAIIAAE
T2 sequence (Q8IZX4 1517-1626 limits assumed): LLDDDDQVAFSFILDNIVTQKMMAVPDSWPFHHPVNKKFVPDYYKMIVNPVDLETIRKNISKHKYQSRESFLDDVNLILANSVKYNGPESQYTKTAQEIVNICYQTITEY
T8 sequence (Q86U86 653-763 limits assumed): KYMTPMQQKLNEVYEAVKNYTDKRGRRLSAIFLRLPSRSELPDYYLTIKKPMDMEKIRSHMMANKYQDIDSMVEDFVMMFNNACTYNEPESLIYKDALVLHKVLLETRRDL
T6 sequence (Q9UIF9 1793-1897 limits assumed): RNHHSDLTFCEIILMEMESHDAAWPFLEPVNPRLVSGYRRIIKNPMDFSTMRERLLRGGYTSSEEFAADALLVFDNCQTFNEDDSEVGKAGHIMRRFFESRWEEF
T5 sequence (P25440 71-455 limits assumed): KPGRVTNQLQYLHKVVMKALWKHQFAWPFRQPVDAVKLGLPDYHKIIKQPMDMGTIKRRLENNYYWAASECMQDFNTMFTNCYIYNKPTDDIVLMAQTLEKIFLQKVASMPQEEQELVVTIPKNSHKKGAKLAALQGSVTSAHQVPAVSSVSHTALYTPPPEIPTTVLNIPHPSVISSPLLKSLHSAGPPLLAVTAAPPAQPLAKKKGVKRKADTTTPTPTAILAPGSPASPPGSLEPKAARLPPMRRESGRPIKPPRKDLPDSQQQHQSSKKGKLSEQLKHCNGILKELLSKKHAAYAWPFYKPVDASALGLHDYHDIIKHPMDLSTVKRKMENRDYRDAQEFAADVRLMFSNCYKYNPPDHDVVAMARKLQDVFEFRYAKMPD
T4 sequence (Q9NSI6 1313-1418 limits assumed): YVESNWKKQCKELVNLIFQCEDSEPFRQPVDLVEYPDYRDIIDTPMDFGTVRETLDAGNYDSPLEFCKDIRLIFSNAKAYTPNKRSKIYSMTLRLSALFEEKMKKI
T11 sequence (Q15059 34-140 limits assumed): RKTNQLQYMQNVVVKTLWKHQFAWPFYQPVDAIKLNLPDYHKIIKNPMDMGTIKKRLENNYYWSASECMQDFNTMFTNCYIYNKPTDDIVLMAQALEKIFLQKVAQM
T9 sequence (Q15059 306-415 limits assumed): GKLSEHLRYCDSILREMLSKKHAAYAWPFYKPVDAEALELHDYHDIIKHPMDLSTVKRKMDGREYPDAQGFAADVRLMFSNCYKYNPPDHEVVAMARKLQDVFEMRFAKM
T10 sequence (Q9ULD4 589-693 limits assumed): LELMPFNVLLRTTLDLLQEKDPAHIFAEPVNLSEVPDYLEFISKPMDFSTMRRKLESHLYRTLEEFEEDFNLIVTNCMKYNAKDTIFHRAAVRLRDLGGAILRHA
T1 sequence (O95696 562-666 limits assumed): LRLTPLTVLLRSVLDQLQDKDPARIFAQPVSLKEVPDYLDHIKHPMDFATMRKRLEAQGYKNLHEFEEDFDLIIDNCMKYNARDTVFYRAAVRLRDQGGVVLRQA

Kd [1] [µM] | Kd [2] [µM] | Kd [3] [µM] | Kd [4] [µM] | Kd [5] [µM] | Kd [6] [µM] | Kd [7] [µM] | Kd [8] [µM] | % Ctrl @ 10 000 nM BRD3(2) [9] [% Ctrl] | % Ctrl @ 10 000 nM BRPF3 [10] [% Ctrl] | % Ctrl @ 10 000 nM SMARCA2 [11] [% Ctrl] | % Ctrl @ 10 000 nM FALZ [12] [% Ctrl] | % Ctrl @ 10 000 nM BRD3(1) [13] [% Ctrl] | % Ctrl @ 10 000 nM ATAD2B [14] [% Ctrl] | SMILES
3.1 | 6.8 | > 10 | > 10 | 0.084 | 1.9 | 2.6 | 3.8 | – | – | – | – | – | – | Cc1[nH]c(-c2cc(N)ccc2Cl)c2c1C(=O)CCCC2 [Compound 23]
– | – | – | – | – | – | – | – | 0 | 35 | 83 | 6.8 | 0.05 | 97 | COc1ccc(S(=O)(=O)N2CCOCC2)cc1NC(=O)c1[nH]c(C)c2c1CCCCC2=O [Compound 13, N-(2-methoxy-5-(morpholinosulfonyl)phenyl)-3-methyl-4-oxo-2,4,5,6,7,8-hexahydrocyclohepta[c]pyrrole-1-carboxamide]
